19 molecules from patent US20040082635A1, “Fused cyclic compounds and medicinal use thereof” (priority 2001, published 2004) can be followed below.

The term IC50 denotes the concentration needed to halve the response being measured.

Where a name gives a salt, the structure may show the parent alone.

T1 sequence (P26663 2420-3010): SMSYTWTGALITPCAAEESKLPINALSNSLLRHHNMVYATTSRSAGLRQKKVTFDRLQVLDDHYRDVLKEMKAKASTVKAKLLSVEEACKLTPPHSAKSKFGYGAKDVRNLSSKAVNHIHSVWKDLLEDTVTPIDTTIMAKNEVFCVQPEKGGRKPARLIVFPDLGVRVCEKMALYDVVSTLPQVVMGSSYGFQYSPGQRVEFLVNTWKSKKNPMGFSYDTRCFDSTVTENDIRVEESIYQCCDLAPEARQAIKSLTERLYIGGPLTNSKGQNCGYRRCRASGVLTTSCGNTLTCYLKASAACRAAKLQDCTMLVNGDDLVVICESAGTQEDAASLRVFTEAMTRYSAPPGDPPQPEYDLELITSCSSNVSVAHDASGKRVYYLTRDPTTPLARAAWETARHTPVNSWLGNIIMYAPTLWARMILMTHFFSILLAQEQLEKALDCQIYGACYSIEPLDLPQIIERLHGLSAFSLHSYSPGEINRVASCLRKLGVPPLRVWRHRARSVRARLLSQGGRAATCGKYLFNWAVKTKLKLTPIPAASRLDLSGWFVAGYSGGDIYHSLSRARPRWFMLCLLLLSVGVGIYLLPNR

This assay concerns the target T1, HCV polymerase (Hepatitis C virus genotype 1b, UniProt P26663).
T1 construct: a region encoding NS5B (591 amino acids; J Virol 1991 Mar, 65(3), 1105-13) was amplified by PCR; 6 His (N); made in house; host or cells: Escherichia coli
The assay is described as follows: biochemical. Particulars: read-out: HCV polymerase inhibitory activity IC50.
For `CN(C)C(=O)Nc1ccc(-c2ccc(Cl)cc2)c(COc2ccc(-c3nc4cc(C(=O)O)ccc4n3C3CCCCC3)c(F)c2)c1` [Example 391, 2-{4-[2-(4-chlorophenyl)-5-{(dimethylcarbamoyl)amino}benzyloxy]-2-fluorophenyl}-1-cyclohexylbenzimidazole-5-carboxylic acid hydrochloride], the IC50 was found to be 17 nM.
Under `O=C(O)c1ccc2c(c1)nc(-c1ccc(OCc3cc(NC(=O)N4CCOCC4)ccc3-c3ccc(Cl)cc3)cc1F)n2C1CCCCC1` [Example 392, 2-{4-[2-(4-chlorophenyl)-5-{(morpholinocarbonyl)amino}benzyloxy]-2-fluorophenyl}-1-cyclohexylbenzimidazole-5-carboxylic acid hydrochloride] stands 14 nM; under `NC(=O)Nc1ccc(-c2ccc(Cl)cc2)c(COc2ccc(-c3nc4cc(C(=O)O)ccc4n3C3CCCCC3)c(F)c2)c1` [Example 393, 2-{4-[2-(4-chlorophenyl)-5-ureidobenzyloxy]-2-fluorophenyl}-1-cyclohexylbenzimidazole-5-carboxylic acid hydrochloride], 11 nM.
To `CCNC(=O)Nc1ccc(-c2ccc(Cl)cc2)c(COc2ccc(-c3nc4cc(C(=O)O)ccc4n3C3CCCCC3)c(F)c2)c1` [Example 394, 2-{4-[2-(4-chlorophenyl)-5-{(ethylcarbamoyl)amino}benzyloxy]-2-fluorophenyl}-1-cyclohexylbenzimidazole-5-carboxylic acid hydrochloride] belongs 19 nM.
As to `CC(C)NC(=O)Nc1ccc(-c2ccc(Cl)cc2)c(COc2ccc(-c3nc4cc(C(=O)O)ccc4n3C3CCCCC3)c(F)c2)c1` [Example 395, 2-{4-[2-(4-chlorophenyl)-5-{(isopropylcarbamoyl)amino}benzyloxy]-2-fluorophenyl}-1-cyclohexylbenzimidazole-5-carboxylic acid hydrochloride], the IC50 amounted to 16 nM.
Under `CC(C)NC(=O)c1ccc(-c2ccc(F)c(F)c2)c(COc2ccc(-c3nc4cc(C(=O)O)ccc4n3C3CCCCC3)c(F)c2)c1` [Example 396, 2-{4-[2-(3,4-difluorophenyl)-5-(isopropylcarbamoyl)benzyloxy]-2-fluorophenyl}-1-cyclohexylbenzimidazole-5-carboxylic acid] stands 25 nM; under `CC(C)NC(=O)c1ccc(-c2ccc(F)cc2F)c(COc2ccc(-c3nc4cc(C(=O)O)ccc4n3C3CCCCC3)c(F)c2)c1` [Example 397, 2-{4-[2-(2,4-difluorophenyl)-5-(isopropylcarbamoyl)benzyloxy]-2-fluorophenyl}-1-cyclohexylbenzimidazole-5-carboxylic acid hydrochloride], 37 nM.
To `CC(C)NC(=O)c1ccc(-c2cc(Cl)cc(Cl)c2)c(COc2ccc(-c3nc4cc(C(=O)O)ccc4n3C3CCCCC3)c(F)c2)c1` [Example 398, 2-{4-[2-(3,5-dichlorophenyl)-5-(isopropylcarbamoyl)benzyloxy]-2-fluorophenyl}-1-cyclohexylbenzimidazole-5-carboxylic acid hydrochloride] belongs 77 nM; to `CC(C)NC(=O)c1ccc(-c2ccc(F)c(Cl)c2)c(COc2ccc(-c3nc4cc(C(=O)O)ccc4n3C3CCCCC3)c(F)c2)c1` [Example 399, 2-{4-[2-(3-chloro-4-fluorophenyl)-5-(isopropylcarbamoyl)-benzyloxy]-2-fluorophenyl}-1-cyclohexylbenzimidazole-5-carboxylic acid hydrochloride], 32 nM.
Consider `CC(C)NS(=O)(=O)c1ccc(-c2ccc(Cl)cc2)c(COc2ccc(-c3nc4cc(C(=O)O)ccc4n3C3CCCCC3)c(F)c2)c1` [Example 409, 2-{4-[2-(4-chlorophenyl)-5-(isopropylaminosulfonyl)benzyloxy]-2-fluorophenyl}-1-cyclohexylbenzimidazole-5-carboxylic acid hydrochloride], for which the IC50 was determined as 20 nM.
In the case of `CN(C)C(=O)c1ccc(-c2ccc(Cl)cc2)c(COc2ccc(-c3nc4cc(C(=O)O)ccc4n3C3CCCC3)c(F)c2)c1` [Example 410, 2-{4-[2-(4-chlorophenyl)-5-(dimethylcarbamoyl)benzyloxy]-2-fluorophenyl}-1-cyclopentylbenzimidazole-5-carboxylic acid hydrochloride], the concentration for half-maximal inhibition (IC50) came to 18 nM.
Under `O=C(O)c1ccc2c(c1)nc(-c1ccc(OCc3cc(C(=O)N4CCC(O)CC4)ccc3-c3ccc(Cl)cc3)cc1F)n2C1CCCC1` [Example 411, 2-{4-[2-(4-chlorophenyl)-5-(4-hydroxypiperidin-1-ylcarbonyl)-benzyloxy]-2-fluorophenyl}-1-cyclopentylbenzimidazole-5-carboxylic acid hydrochloride] stands 15 nM; under `CC(C)NC(=O)c1ccc(-c2ccc(Cl)cc2)c(COc2ccc(-c3nc4cc(C(=O)O)ccc4n3C3CCCC3)c(F)c2)c1` [Example 412, 2-{4-[2-(4-chlorophenyl)-5-(isopropylcarbamoyl)benzyloxy]-2-fluorophenyl}-1-cyclopentylbenzimidazole-5-carboxylic acid hydrochloride], 19 nM.
As for `CC(C)NC(=O)c1ccc(-c2ccc(Cl)cc2)c(COc2ccc(-c3nc4cc(C(=O)O)ccc4n3C3CCCC3)cc2)c1` [Example 413, 2-{4-[2-(4-chlorophenyl)-5-(isopropylcarbamoyl)benzyloxy]phenyl}-1-cyclopentylbenzimidazole-5-carboxylic acid hydrochloride], the 50% inhibitory concentration (IC50) was determined as 26 nM.
To `CN(C)C(=O)c1ccc(-c2ccc(Cl)cc2)c(COc2ccc(-c3nc4cc(C(=O)O)ccc4n3C3CCCC3)cc2)c1` [Example 414, 2-{4-[2-(4-chlorophenyl)-5-(dimethylcarbamoyl)benzyloxy]phenyl}-1-cyclopentylbenzimidazole-5-carboxylic acid hydrochloride] belongs 24 nM; to `O=C(O)c1ccc2c(c1)nc(-c1ccc(OCc3cc(C(=O)N4CCC(O)CC4)ccc3-c3ccc(Cl)cc3)cc1)n2C1CCCC1` [Example 415, 2-{4-[2-(4-chlorophenyl)-5-(4-hydroxypiperidin-1-ylcarbonyl)benzyloxy]phenyl}-1-cyclopentylbenzimidazole-5-carboxylic acid hydrochloride], 19 nM.
To `CC(C)NC(=O)c1ccc(-c2ccc(Cl)cc2)c(COc2ccc(-c3nc4cc(C(=O)O)ccc4n3C3CCSCC3)cc2)c1` [Example 416, 2-{4-[2-(4-chlorophenyl)-5-(isopropylcarbamoyl)benzyloxy]phenyl}-1-(tetrahydrothiopyran-4-yl)benzimidazole-5-carboxylic acid hydrochloride] belongs 24 nM.
Take `O=C(O)c1ccc2c(c1)nc(-c1ccc(OCc3cc(C(=O)N4CCCC4)ccc3-c3ccc(Cl)cc3)cc1)n2C1CCSCC1` [Example 417, 2-{4-[2-(4-chlorophenyl)-5-(pyrrolidin-1-ylcarbonyl)benzyloxy]phenyl}-1-(tetrahydrothiopyran-4-yl)benzimidazole-5-carboxylic acid hydrochloride]: the IC50 worked out at 29 nM.
To `CC(C)NC(=O)c1ccc(-c2ccc(Cl)cc2)c(COc2ccc(-c3nc4cc(C(=O)O)ccc4n3C3CCSCC3)c(F)c2)c1` [Example 418, 2-{4-[2-(4-chlorophenyl)-5-(isopropylcarbamoyl)benzyloxy]-2-fluorophenyl}-1-(tetrahydrothiopyran-4-yl)benzimidazole-5-carboxylic acid hydrochloride] belongs 16 nM.
